As usually defined, the IC50 is the concentration needed to halve the response being measured.

This assay concerns Agrobacterium tumefaciens. In words: Inhibition of acetosyringone-induced virB::lacZ expression in Agrobacterium tumefaciens A348/pSW209. In kind it is functional, organism-based.

Consider `COc1cccc2c1C(=O)OC2O` (configuration not stated), for which the 50% inhibitory concentration (IC50) is above 200 µM.
`COc1ccc(N(O)C(=O)C=O)c(O)c1` registered an IC50 of 30 µM. That is a double-digit micromolar value.
The same measure for `O=CCC(=O)N(O)c1ccccc1`: above 400 µM; for `O=CC(=O)Oc1ccccc1`: 25 µM; for `COc1ccccc1C(=O)C=O`: 34 µM.
On to `O=CC(=O)Nc1ccccc1`, for which 35 µM corresponded to half-maximal inhibition (IC50).
With `COc1cc(OC)c(C=O)c(C(C)=O)c1` the figure was 25 µM; with `CCCCC(=O)c1c(OC)cc(OC)cc1C(=O)O`, above 200 µM; with `COc1cc(OC)c(C(C)=O)c(C(C)=O)c1`, above 200 µM.
`COc1cc(C=O)cc(OC)c1` displayed an IC50 above 200 µM.
With `COc1cc(CC(=O)O)c(C=O)c(OC)c1` the figure was above 200 µM; with `COc1cc(OC)c2c(c1N)C(=O)OC2O` (configuration not stated), above 200 µM; with `COc1cc(OC)c2c(c1NC(C)=O)C(=O)OC2O` (configuration not stated), above 200 µM.
The same measure for `O=C1OC(O)c2ccccc21` (configuration not stated): 25 µM.
With `COc1cc(OC)c(C(C)=O)c(C(=O)O)c1` the figure was above 200 µM.
Molecule `O=Cc1ccccc1C(=O)O` gave an IC50 above 200 µM.
As to `COc1ccc(C=O)c(OC)c1`, the IC50 is above 200 µM.
The molecule `CCCCC(=O)c1ccccc1C=O` registered an IC50 of 20 µM.
In turn, `CCOc1cc(OCC)c2c(c1)C(=O)OC2O` (configuration not stated) gave an IC50 of 8 µM.
`COc1cc(C=O)c(C(C)=O)c(OC)c1`: the concentration for half-maximal inhibition (IC50) came out at 25 µM. This IC50 is about 3.1-fold higher than that of the molecule before.
`CCCCC(=O)c1cc(OC)cc(OC)c1C=O` returned a concentration for half-maximal inhibition (IC50) of 10 µM.
The same measure for `CC(=O)c1ccccc1C=O`: 25 µM; for `COc1ccc2c(c1)C(O)OC2=O` (configuration not stated): 41 µM; for `COc1cc(OC)c2c(c1O)C(=O)OC2O` (configuration not stated): above 100 µM.
The same measure for `COc1ccc(N(OC)C(=O)C=O)c(O)c1`: below 1 µM; for `O=CC(=O)N(O)c1ccccc1`: 25 µM.
The same measure for `COc1ccc2c(c1)C(=O)OC2O` (configuration not stated): above 200 µM; for `COc1cc(OC)c([N+](=O)[O-])c2c1C(O)OC2=O` (configuration not stated): above 200 µM.
For the molecule `CCCCC(=O)c1c(C=O)cc(OC)cc1OC`, inhibition was half-maximal at 10 µM (IC50).
Molecule `COc1cccc2c1C(O)OC2=O` (configuration not stated) yielded an IC50 above 200 µM.
Molecule `COc1cc(OC)c(C=O)c(C(=O)O)c1` registered a half-inhibitory concentration (IC50) of 8 µM.
Molecule `O=CC(=O)c1ccccc1` [PHENYLGLYOXAL] yielded a half-maximal inhibitory concentration (IC50) of 40 µM.
